Experimental findings from PMC7008064 (Drug Design, Development and Therapy, 2020) are described below.

The structures appear in SMILES notation.

In assay [1] the test system is neuroblastoma (SH-SY5Y) cell line. As to the kind of experiment: cells. The format is cell-based. The conditions noted are these: for IC50: Homo sapiens, SH-SY5Y, 48 h, read-out: IC50 SH-SY5Y.
The test system of assay [2] is colorectal adenocarcinoma (HT-29) cell line. As to the kind of experiment: cells. The conditions noted are these: for IC50: Homo sapiens, HT-29, 48 h, read-out: IC50 HT-29. Type of assay: cell-based.
A further assay addresses HDAC2 (Homo sapiens, UniProt Q92769). As to the kind of experiment: HDAC2 inhibitory activity. Type of assay: biochemical.
In the next assay the target is HDAC1 (Homo sapiens, UniProt Q13547). The assay is described as follows: HDAC1 inhibitory activity. The format is biochemical.
Setting [3] is: HDAC2 IC50 (as printed in docking Table 4), unrounded values repeated in Table 4.
[4] abbreviates: IC50 HDAC2, mean ± S.E. of three independent experiments.
Where [5] appears, read: HDAC1 IC50 (as printed in docking Table 3), unrounded values repeated in Table 3.
Setting [6] is: IC50 HDAC1, mean ± S.E. of three independent experiments.
Where [7] appears, read: ratio of IC50 values vs Gefitinib.

HDAC2, sequence (Q92769 whole entry): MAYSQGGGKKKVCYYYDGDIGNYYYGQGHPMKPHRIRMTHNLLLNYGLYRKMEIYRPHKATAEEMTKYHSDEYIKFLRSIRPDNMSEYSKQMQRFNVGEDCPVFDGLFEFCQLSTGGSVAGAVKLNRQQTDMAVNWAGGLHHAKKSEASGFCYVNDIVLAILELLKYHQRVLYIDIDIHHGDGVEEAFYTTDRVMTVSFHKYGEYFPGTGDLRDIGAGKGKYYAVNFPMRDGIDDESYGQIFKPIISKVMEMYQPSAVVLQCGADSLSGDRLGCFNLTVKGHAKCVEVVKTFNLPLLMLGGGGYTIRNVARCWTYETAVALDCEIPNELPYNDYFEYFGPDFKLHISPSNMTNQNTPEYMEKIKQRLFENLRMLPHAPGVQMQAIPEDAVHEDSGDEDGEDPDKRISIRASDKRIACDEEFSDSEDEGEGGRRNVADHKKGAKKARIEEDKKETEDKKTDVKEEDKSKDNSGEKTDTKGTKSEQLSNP
HDAC1, sequence (Q13547 whole entry): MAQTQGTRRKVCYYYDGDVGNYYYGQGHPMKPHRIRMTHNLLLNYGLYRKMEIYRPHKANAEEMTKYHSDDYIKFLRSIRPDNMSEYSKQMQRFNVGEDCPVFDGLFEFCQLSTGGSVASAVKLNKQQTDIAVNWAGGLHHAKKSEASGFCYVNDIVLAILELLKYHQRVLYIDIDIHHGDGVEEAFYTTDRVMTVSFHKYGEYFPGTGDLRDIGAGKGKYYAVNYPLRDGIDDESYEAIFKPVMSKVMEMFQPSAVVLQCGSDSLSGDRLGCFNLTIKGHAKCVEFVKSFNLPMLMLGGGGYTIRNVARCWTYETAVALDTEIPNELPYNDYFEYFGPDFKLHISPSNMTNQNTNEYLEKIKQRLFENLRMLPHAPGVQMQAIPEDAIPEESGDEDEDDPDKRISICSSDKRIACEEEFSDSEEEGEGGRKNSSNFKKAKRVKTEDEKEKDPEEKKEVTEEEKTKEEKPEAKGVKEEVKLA

With `Cc1nc(C)c(C(=O)Nc2cccc(C(=O)NN)c2)nc1C` [Compound 8b, N-(3-(Hydrazinecarbonyl)phenyl)-3,5,6-Trimethylpyrazine-2-Carboxamide], the IC50 in assay [1] amounted to 28.5 ± 0.8 µM; in assay [2], 3.25 ± 0.09 µM; at HDAC2 (setting [3]) it was 113 nM; against HDAC2 (setting [4]), 112.9 ± 0.09 nM; against HDAC1 (setting [5]), 1800 nM; at HDAC1 (setting [6]), 1800.1 ± 0.45 nM. The “fold worsening of effectiveness against HDAC1 on shifting hydrazide ZBG from para (7a) to meta (8b)” value at HDAC1 (8b relative to 7a) is on record as 15.7 fold.

As to `Cc1nc(C)c(C(=O)Nc2cccc(C(=O)NO)c2)nc1C` [Compound 8a, N-(3-(Hydroxycarbamoyl)phenyl)-3,5,6-Trimethylpyrazine-2-Carboxamide], the IC50 in assay [1] amounted to 4.27 ± 0.12 µM; in assay [2] it was 1.96 ± 0.05 µM; against HDAC2 (setting [3]), 169 nM; on HDAC2 (setting [4]), 168.8 ± 0.13 nM; against HDAC1 (setting [5]), 468 nM. For the same compound, in assay [2] (setting [7]), the “times more potent than Gefitinib toward HT-29 cells” value was 2.5 times.

Regarding `Cc1nc(C)c(C(=O)Nc2ccc(C(=O)NN)cc2)nc1C` [Compound 7a, N-(4-(Hydrazinecarbonyl)phenyl)-3,5,6-Trimethylpyrazine-2-Carboxamide], the half-maximal inhibitory concentration (IC50) in assay [1] is 1.6 ± 0.04 µM; in assay [2], 15.1 ± 0.43 µM; against HDAC2 (setting [3]) it was 53.7 nM; against HDAC2 (setting [4]), 53.7 ± 0.05 nM; against HDAC1 (setting [5]) it was 114 nM; against HDAC1 (setting [6]), 114.3 ± 0.44 nM. For the same compound, the “fold enhanced efficiency than reference drug Gefitinib against SH-SY5Y cells” value in assay [1] (setting [7]) was determined as 4.7 fold.

For `Cc1nc(C)c(C(=O)Nc2ccc(CC(=O)NO)cc2)nc1C` [Compound 7b, N-(4-(2-(Hydroxyamino)-2-Oxoethyl)phenyl)-3,5,6-Trimethylpyrazine-2-Carboxamide], the half-maximal inhibitory concentration (IC50) in assay [1] is 67 ± 1.91 µM; in assay [2], 4.57 ± 0.13 µM; at HDAC2 (setting [3]) it was 132 nM; at HDAC2 (setting [4]), 132.3 ± 0.12 nM; against HDAC1 (setting [5]), 2430 nM; at HDAC1 (setting [6]), 2434.7 ± 1.25 nM.

On to `Cc1nc(C)c(C(=O)Nc2ccc(CC(=O)NN)cc2)nc1C` [Compound 7c, N-(4-(2-Hydrazinyl-2-Oxoethyl)phenyl)-3,5,6-Trimethylpyrazine-2-Carboxamide], for which the IC50 in assay [1] was 43.5 ± 1.21 µM; in assay [2] it was 6.11 ± 0.17 µM; at HDAC2 (setting [3]), 205 nM; against HDAC2 (setting [4]), 205.4 ± 0.43 nM; against HDAC1 (setting [5]) it was 264 nM; on HDAC1 (setting [6]), 263.5 ± 1.27 nM.
